# Measured values published in patent US11426454B2 (priority 2018, dated 2022).
# System: live BCG bacteria
# Type: in vivo, C57BL/6 mice
# Settings: 0.1 mL (approximately 10^6 CFU/mL) under the armpits; isoniazid by gavage; 2×10^6 live BCG challenge one week later; week 4
smiles,measurement,value
"NNC(=O)c1ccncc1 [Isoniazid, isoniazid]",Colony count of lung tissues (CFU),34000 ± 13115 CFU
same,Colony count of spleen tissues (CFU),6733 ± 2969 CFU
